Results taken from PMC5855875, “Teixobactin analogues reveal enduracididine to be non-essential for highly potent antibacterial activity and lipid II binding” (Chemical Science, 2017).
In brackets after ≈: the same amount, converted by molar mass. Bridge positions count the residues as written; N and C are the ends. Square brackets hold non-standard residues; d marks the D form. Peptide text beside a SMILES is read from it. d(aIle) = CC[C@H](C)[C@@H](N)C(=O)O; dNMeF = CN[C@H](Cc1ccccc1)C(=O)O

Experiments:
[1] = test system: MRSA ATCC 33591; assay: microbe, parasite or virus in culture
Experimental: were grown in Mueller Hinton broth (Oxoid) in triplicate. All incubations were at 37°C. Dilutions were carried out in triplicate. 100 µl of autoclaved Mueller Hinton broth was added to wells 2-12 in a 96-well plate. 200 µl of the peptide was added to well one at a concentration of 256 µg/mL. 100µl of peptide in well one was taken up and pipetted into well two. The mixture was then mixed via pipetting before 100µl was taken up and pipetted into well three. This process was repeated up to well 11. Once […]
peptide present. Thus, the concentrations (in µg/mL) were: 256, 128, 64, 32, 16, 8, 4, 2, 1, 0.5, 0.25 and no peptide present. Each well was then inoculated with 100µl of bacteria that had been diluted to an […]
This was repeated three times. The 96-well plates were then incubated at 37°C for 24 hours. The MIC was determined to be the lowest concentration at which there was no growth visible. […]
was repeated at an altered initial concentration of 64 µg/ml. Therefore, the new concentrations for MIC […]
(§1) VIII. MIC testing (extended panel)
(§2) Bacterial cultures were grown overnight i n Mueller-Hinton Agar (MHA) plates and adjusted to a final concentration of 10 5 – 106 CFU/ml. 100 µl of inoculum in Meuller -Hinton broth (MHB) was mixed with equal volume of peptides (dissolved in MHB) at 2x their concentration in a 96 well plate. In parallel experiments, MIC values were determined in the media containing polysorbate 80 (0 .002%, v/v) to […]

[2] = test system: MRSA 1: MRSA ATCC 700699; assay: microbe, parasite or virus in culture
Experimental: as §1, §2
(§3) prevent non-specific adsorption of the peptides to plastic surfaces. The final peptides concentrations […]
(§4) Positive and negative controls contained 200 µl of inoculum without any peptide dissolved in broth, respectively. The 96 well plates were then incubated at 37 °C for 24 h.
(§5) All the experiments were performed in two independent duplicates and the MIC was determined as the […]
(§6) Minimum bactericidal concentration
(§7) The lowest concentration in which no visible colonies could be detected was taken as the MBC.
(§8) 80. Strain information: MRSA 1: MRSA ATCC 700699, MRSA 2: MRSA DR 42412 (sputum), MRSA
(§9) 3: MRSA DM21455 (eye). […] Staphylococcus aureus ATCC

[3] = test system: MRSA 3: MRSA DM21455 (eye); assay: microbe, parasite or virus in culture
Experimental: as §1, §2, §3, §4, §5, §6, §7, §8, §9

[4] = test system: Staphylococcus aureus ATCC 29213; assay: microbe, parasite or virus in culture
Experimental: as §1, §2, §3, §4, §5, §6, §7, §8, §9

[5] = test system: MRSA 2: MRSA DR 42412 (sputum); assay: microbe, parasite or virus in culture
Experimental: as §1, §2, §3
(§10) Positive and negative controls contained 200 µl of inoculum without any peptide dissolved in broth, respectively. The 96 well plates were then incubated at 37 °C for 24 h. […]
as §8, §9

[6] = test system: VRE 1: VRE ATCC 700802; assay: organism not typed
Experimental: as §1, §2, §3, §10, §8, §9

[7] = test system: VRE 2: VRE ATCC 29212; assay: organism not typed
Experimental: as §1, §2, §3, §10, §8, §9

## CC[C@H](C)[C@H](NC(=O)[C@@H](Cc1ccccc1)NC)C(=O)N[C@@H](CO)C(=O)N[C@H](CCC(N)=O)C(=O)N[C@@H](C(=O)N[C@H](C(=O)N[C@@H](CO)C(=O)N[C@H]1C(=O)N[C@@H](C)C(=O)N[C@@H](C(C)C)C(=O)N[C@@H]([C@@H](C)CC)C(=O)O[C@H]1C)[C@@H](C)CC)[C@@H](C)CC [Compound 11, Val10-teixobactin] (H-[dNMeF]IS[dQ][d(aIle)]IS[dT]AVI; ester 8-C)
[1]; ATCC 33591, 24 h
  MIC: 0.5 μg mL^–1
[1]; from MIC against MRSA ATCC 33591
  times better antibacterial activity than Arg10-teixobactin: 4 times
[2]; ATCC 700699, 24 h
  MIC: 1 μg mL^–1
  MIC (without polysorbate 80): 4 µg/mL (≈ 3.37 µM)
[2]; MRSA 1 (MRSA ATCC 700699), plated on MHA, 37 °C, 24 h
  MBC: 4 μg mL^–1
[2]; MRSA 1, MHB containing polysorbate 80 (0.002%, v/v), 37 °C, 24 h, two independent duplicates
  MIC (with polysorbate 80): 1 µg/mL (≈ 0.842 µM)
[3]; 3: DM21455 (eye, 24 h)
  MIC: 0.25 μg mL^–1
  MIC (without polysorbate 80): 4 µg/mL (≈ 3.37 µM)
[3]; MRSA 3 (MRSA DM21455), plated on MHA, 37 °C, 24 h
  MBC: 2 μg mL^–1
[3]; MRSA 3, MHB containing polysorbate 80 (0.002%, v/v), 37 °C, 24 h
  MIC (with polysorbate 80): 0.25 µg/mL (≈ 0.211 µM)
[4]; ATCC 29213, 24 h
  MIC (without polysorbate 80): 2 µg/mL (≈ 1.68 µM)
[4]; S. aureus ATCC 29213, MHB containing polysorbate 80 (0.002%, v/v), 37 °C, 24 h
  MIC (with polysorbate 80): 0.25 µg/mL (≈ 0.211 µM)
[4]; Staphylococcus aureus ATCC 29213, plated on MHA, 37 °C, 24 h
  MBC: 1 μg mL^–1
[5]; 2: DR 42412 (sputum, 24 h)
  MIC: 0.5 μg mL^–1
  MIC (without polysorbate 80): 2 µg/mL (≈ 1.68 µM)
[5]; MRSA 2 (MRSA DR 42412), plated on MHA, 37 °C, 24 h
  MBC: 4 μg mL^–1
[5]; MRSA 2, MHB containing polysorbate 80 (0.002%, v/v), 37 °C, 24 h
  MIC (with polysorbate 80): 0.5 µg/mL (≈ 0.421 µM)
[6]; ATCC 700802, 24 h
  MIC: 0.5 μg mL^–1
  MIC (without polysorbate 80): 4 µg/mL (≈ 3.37 µM)
[6]; VRE 1, MHB containing polysorbate 80 (0.002%, v/v), 37 °C, 24 h
  MIC (with polysorbate 80): 0.5 µg/mL (≈ 0.421 µM)
[7]; ATCC 29212, 24 h
  MIC: 0.5 μg mL^–1
  MIC (without polysorbate 80): 4 µg/mL (≈ 3.37 µM)
[7]; VRE 2, MHB containing polysorbate 80 (0.002%, v/v), 37 °C, 24 h
  MIC (with polysorbate 80): 0.5 µg/mL (≈ 0.421 µM)
